Values quoted from earlier work in US20060025476A1, “Use of methyl pyruvate for the purpose of reducing weight gain in mammals” (priority 2004, published 2006).
Read-outs that look alike come from different tables or passages of the source.

Experiments:
UCP-1 mRNA expression = details: 4-5 h, basal or rosiglitazone-treated cells
[1] = system: fetal rat brown adipocyte primary cultures
[2] = system: porcine carotid artery strips
Na(+)-K(+)-ATPase = details: 10 microM
porcine carotid arteries = details: added to amino-oxyacetic acid
PPAR-alpha [3] = target: T1, PPAR-alpha (Rattus norvegicus, UniProt P37230); parameters: from tissue; details: control and high-fat-fed rats
T1 sequence (P37230 1-468): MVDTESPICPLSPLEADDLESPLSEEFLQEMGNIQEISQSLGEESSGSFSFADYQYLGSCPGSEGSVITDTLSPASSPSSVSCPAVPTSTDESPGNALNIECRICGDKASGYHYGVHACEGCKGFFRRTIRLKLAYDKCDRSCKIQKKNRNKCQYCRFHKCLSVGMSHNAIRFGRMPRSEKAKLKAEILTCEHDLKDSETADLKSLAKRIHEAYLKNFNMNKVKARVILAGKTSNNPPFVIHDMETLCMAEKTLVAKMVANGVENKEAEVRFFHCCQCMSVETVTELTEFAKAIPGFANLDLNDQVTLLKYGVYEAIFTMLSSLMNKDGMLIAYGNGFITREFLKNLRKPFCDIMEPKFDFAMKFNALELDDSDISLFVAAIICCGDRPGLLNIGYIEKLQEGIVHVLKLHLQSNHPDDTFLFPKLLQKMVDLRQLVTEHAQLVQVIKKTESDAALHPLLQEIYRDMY

PPAR-alpha [4] = target: T1, PPAR-alpha; parameters: from tissue; host or cells: rat gastrocnemius muscle, in vivo; details: gastrocnemius muscle, feeding
K(ATP) channels = target: T2, K(ATP) channels (Homo sapiens, UniProt Q09428+Q14654)
T2 construct: endogenous in cells; host or cells: pancreatic beta-cells
T2 sequence (Q14654 whole entry): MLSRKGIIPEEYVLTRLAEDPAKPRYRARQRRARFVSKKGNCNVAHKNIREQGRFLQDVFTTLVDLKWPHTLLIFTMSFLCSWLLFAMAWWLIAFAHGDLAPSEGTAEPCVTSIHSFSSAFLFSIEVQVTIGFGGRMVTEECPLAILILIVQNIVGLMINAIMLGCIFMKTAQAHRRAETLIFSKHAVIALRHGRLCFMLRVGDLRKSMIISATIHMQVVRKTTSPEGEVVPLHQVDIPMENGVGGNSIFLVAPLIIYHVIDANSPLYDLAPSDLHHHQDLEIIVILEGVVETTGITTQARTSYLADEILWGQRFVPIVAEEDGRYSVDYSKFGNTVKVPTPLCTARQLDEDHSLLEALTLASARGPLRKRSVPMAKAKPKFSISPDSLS
T2 sequence (Q09428 whole entry): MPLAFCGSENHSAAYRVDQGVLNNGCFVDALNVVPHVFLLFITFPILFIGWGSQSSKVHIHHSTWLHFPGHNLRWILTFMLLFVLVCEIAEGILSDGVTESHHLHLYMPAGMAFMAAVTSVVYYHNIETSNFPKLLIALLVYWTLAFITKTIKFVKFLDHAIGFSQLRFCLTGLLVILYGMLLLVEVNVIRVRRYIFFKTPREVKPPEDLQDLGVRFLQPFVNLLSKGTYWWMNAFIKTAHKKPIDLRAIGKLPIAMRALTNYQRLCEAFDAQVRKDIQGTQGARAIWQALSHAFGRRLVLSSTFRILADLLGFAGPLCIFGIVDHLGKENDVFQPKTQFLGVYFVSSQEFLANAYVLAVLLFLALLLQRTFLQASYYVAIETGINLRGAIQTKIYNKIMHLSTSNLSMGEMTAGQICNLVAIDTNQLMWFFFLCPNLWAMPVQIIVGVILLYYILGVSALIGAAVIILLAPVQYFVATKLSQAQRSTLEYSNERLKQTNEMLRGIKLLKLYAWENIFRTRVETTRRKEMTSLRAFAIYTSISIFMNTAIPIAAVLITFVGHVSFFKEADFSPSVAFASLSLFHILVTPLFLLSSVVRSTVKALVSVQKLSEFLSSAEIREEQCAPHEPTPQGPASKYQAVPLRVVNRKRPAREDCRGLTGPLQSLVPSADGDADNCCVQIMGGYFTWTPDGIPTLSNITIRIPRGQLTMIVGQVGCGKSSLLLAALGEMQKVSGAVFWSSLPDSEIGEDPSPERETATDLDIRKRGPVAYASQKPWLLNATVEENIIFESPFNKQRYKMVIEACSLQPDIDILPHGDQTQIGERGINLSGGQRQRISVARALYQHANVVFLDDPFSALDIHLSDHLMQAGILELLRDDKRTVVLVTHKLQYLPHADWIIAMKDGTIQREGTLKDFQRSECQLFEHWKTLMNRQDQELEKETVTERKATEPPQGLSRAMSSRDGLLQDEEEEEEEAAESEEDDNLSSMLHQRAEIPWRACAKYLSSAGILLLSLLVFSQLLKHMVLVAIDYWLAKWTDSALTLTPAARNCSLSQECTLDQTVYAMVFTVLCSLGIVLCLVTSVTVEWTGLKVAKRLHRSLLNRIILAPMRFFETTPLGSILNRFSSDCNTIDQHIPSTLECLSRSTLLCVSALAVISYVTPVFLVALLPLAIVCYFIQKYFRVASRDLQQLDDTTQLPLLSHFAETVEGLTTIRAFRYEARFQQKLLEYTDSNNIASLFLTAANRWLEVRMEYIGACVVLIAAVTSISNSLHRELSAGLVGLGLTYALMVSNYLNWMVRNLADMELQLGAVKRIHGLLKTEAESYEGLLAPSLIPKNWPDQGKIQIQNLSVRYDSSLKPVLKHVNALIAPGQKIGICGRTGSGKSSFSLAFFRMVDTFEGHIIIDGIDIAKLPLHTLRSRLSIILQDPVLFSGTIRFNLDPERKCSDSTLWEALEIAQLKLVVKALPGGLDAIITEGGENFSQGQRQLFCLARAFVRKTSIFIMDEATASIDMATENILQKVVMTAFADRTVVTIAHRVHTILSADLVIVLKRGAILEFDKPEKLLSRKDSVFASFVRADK

[5] = system: isolated rat pancreatic islets; details: compared with pyruvate
pancreatic beta-cells [6] = system: pancreatic beta-cells
[7] = system: Jurkat T-lymphocyte mitochondria
[8] = system: isolated beta-cell mitochondria; details: accumulation of ATP in medium, in combination with glutamate
pancreatic islets = details: NAD(P)H imaging with LipDH autofluorescence
whole islets = details: 5 mM
pancreatic beta-cells [9] = system: pancreatic beta-cells; remark: listed apart in the source
[10] = system: isolated rat pancreatic islets
[11] = system: guinea-pig cerebral cortical synaptosomes
PPARa/g = details: high-fat-fed rats

Q: For `COc1cccc(-c2cc(=O)c3ccccc3o2)c1N` [PD98059], which “negative effect of TNF-alpha on UCP-1 mRNA expression” value (UCP-1 mRNA expression) is on record?
A: reversed

Q: Which “p44/p42 and p38 mitogen-activated protein kinase activation” value [1] does the source give for `CC1=C(/C=C/C(C)=C\C=C\C(C)=C\C(=O)O)C(C)(C)CCC1` [9-cis-retinoic acid] here?
A: induce

Q: For `[Cl-].[K+]` [KCl], which “change in resting tone” value ([2]; 10 mM KCl, glucose-PSS) is on record?
A: -0.8 ± 0.8 g

Q: And the “change in resting tone (increased contraction)” value ([2]; 10 mM KCl, lactate-PSS)?
A: 1.5 ± 0.7 g

Q: What about the “change in resting tone” value ([2]; 10 mM KCl, pyruvate-PSS) of the same molecule?
A: -2.1 ± 0.8 g

Q: Which “suppressive effects of LXRs on PPARa-induced PPRE-luciferase activity” value (LXR) does the source give for `CC(C)CC[C@@H](O)[C@@H](C)[C@H]1CC[C@H]2[C@@H]3CC=C4C[C@@H](O)CC[C@]4(C)[C@H]3CC[C@]12C` [22 (R)-hydroxycholesterol] here?
A: dose dependently enhanced

Q: For `C[C@@H]1O[C@@H](O[C@H]2C[C@@H](O)[C@]3(CO)[C@H]4[C@H](O)C[C@]5(C)[C@@H](C6=CC(=O)OC6)CC[C@]5(O)[C@@H]4CC[C@]3(O)C2)[C@H](O)[C@H](O)[C@H]1O` [ouabain], which “glycolysis and lactate production” value (Na(+)-K(+)-ATPase) is on record?
A: decreased

Q: For `CC(O)C(=O)O` (stereo not drawn) [lactate], which “increase of O2 consumption” value ([2]; 10 mm in PSS) is on record?
A: without effect

Q: For `O=S(=O)(c1ccccc1)N(CC(F)(F)F)c1ccc(C(O)(C(F)(F)F)C(F)(F)F)cc1` [T0901317], which “suppressive effects of LXRs on PPARa-induced PPRE-luciferase activity” value (LXR) is on record?
A: dose dependently enhanced

Q: For `CCCCCCCC(=O)O` [octanoate], which “adverse energetic effects of malate-aspartate shuttle inhibition” value (porcine carotid arteries) is on record?
A: normalized

Q: For `Cc1cccc(Nc2cc(Cl)nc(SCC(=O)O)n2)c1C` [WY14,643], which “hepatic PDK4 protein” value (PPAR-alpha [3]) is on record?
A: significantly increased

Q: What about the “pyruvate dehydrogenase kinase activity, PDK4 protein and PDK4 mRNA” value (PPAR-alpha [4]) of the same molecule?
A: large increases

Q: Which results are given for `COC(=O)C(C)=O` [methyl pyruvate]?
A: block of KATP (K(ATP) channels): block; single-channel currents (K(ATP) channels; inside-out patches): blocked; K(ATP) current (K(ATP) channels; standard whole-cell configuration): inhibited; efficiency in intramitochondrial metabolism (amino acid conversion, inhibition of glucose utilization, 14CO2 output) [5]: more efficient than pyruvate; mitochondrial alkalinization [5]: more marked mitochondrial alkalinization than pyruvate; ATP production or ATP/ADP ratio (pancreatic beta-cells [6]): did not influence; NAD(P)H autofluorescence (pancreatic beta-cells [6]): slightly decreased; [Ca2+]i (pancreatic beta-cells [6]): sustained rise; depolarization of beta-cell membrane potential (pancreatic beta-cells [6]; 5-20 mM): depolarized the beta-cell in a concentration-dependent manner; cytosolic free Ca(2+) concentration (pancreatic beta-cells [6]; after an initial decrease): increased; electrical activity (pancreatic beta-cells [6]; presence of 0.5 mM glucose): elicited electrical activity; cation current across the inner membrane of mitochondria [7]: directly inhibited; ATP production with glutamate [8]: higher than that induced by pyruvate/glutamate; NADH and NADPH response (pancreatic islets): robust NADH and NADPH response; ATP/ADP ratio in whole islets (whole islets): no effect; increase in insulin secretion relative to that induced by glucose (pancreatic beta-cells [9]): 6 fold; concentration of maximal effect on insulin secretion (pancreatic beta-cells [9]; absence of glucose): 5 mM; insulin release ([10]; D-glucose 16.7 mM and/or methyl ester 20.0 mM): negative insulinotropic action; insulin release ([10]; D-glucose 2.8 to 8.3 mM, ester not exceeding 10.0 mM): positive insulinotropic action

Q: With `NOCC(=O)O` [amino-oxyacetic acid] as the molecule, how does the “negative shift in the cytosolic NAD+/NADH redox potential” value [11] read?
A: 26 mV

Q: With `CC1=C(/C=C/C(C)=C/C=C/C(C)=C/C(=O)O)C(C)(C)CCC1` [all-trans-retinoic acid] as the molecule, how does the “p44/p42 and p38 mitogen-activated protein kinase activation” value [1] read?
A: induce

Q: With `CCO[C@@H](Cc1ccc(OCCc2ccc(OS(C)(=O)=O)cc2)cc1)C(=O)O` [tesaglitazar] as the molecule, how does the “diglyceride and long chain acyl coenzyme A in skeletal muscle” value (PPARa/g) read?
A: decreased

Q: What about the hepatic triglyceride accumulation (PPARa/g) of the same molecule?
A: reduced

Q: And the “glucose infusion rate during hyperinsulinemic-euglycemic clamp” value (PPARa/g; 7 d)?
A: increase
